# Test results as given in US7943660B2, “Inhibitors of the LFA-1/ICAM-1 interaction and uses thereof” (Dominion Pharmakine S.L., priority 2005, dated 2011).
# Legend:
# [1] = tested on: B16 melanoma (B16M) cell adhesion to VEGF-induced HSE cells mediated by LFA-1; experiment: B16M cell adhesion to VEGF-treated hepatic sinusoidal endothelial (HSE) cells in vitro; assay type: cell-based, murine; conditions: HSE pre-incubated with 10 μg/ml HC0303 30 min prior to 10 ng/ml rmVEGF for 8 hours; FIG. 5; P<0.001
# Experimental: (§1) Time-dependent adhesion assays was carried out on a quantitative basis according to previous validated bioassays (Vidal-Vanaclocha et al., Cancer Research, 1994, 54(10):2667-72). For tumor cell pre-labelling, they were allowed to accumulate the non-fluorescent sterase substrate BCECF-AM and to hydrolyze it to its fluorescent product BCECF which becomes trapped inside living cells. To do this, 50 μg of BCECF-AM were diluted in dry DMSO (5 μl) and DME medium until […] (40 μg/ml).
# (§2) Tumor cells (5×10^6) were incubated in BCECF-AM solution at 37° C. for 30 min. After gently washing, tumor cells were resuspended in fresh medium (DMEM without phenol red) at a concentration of 2×10^6 cells/ml.
# (§3) Twenty-four hours post-plating, primary cultured hepatic sinusoidal endothelial (HSE) cells were also used for adhesion assay. To determine the basal autofluorescence per well, plates were read on a fluorometric microplate reader (Multiskan Ascent, Thermo Labsystems) using 485/22 nm excitation and the 530/25 nm emission filter. Then, 2×10^5 labeled tumor cells were added to each well of HSE cells and to collagen pre-coated control wells.
# (§4) However, in order to determine the exact number of cells in each well, co-culture plates were read for a second time. Then, plates were incubated at 37° C. […]
# [2] = tested on: 51b murine colon carcinoma (51b-CC) cell adhesion to HSE cells; experiment: 51b colon carcinoma cell adhesion to HSE cells; assay type: cell-based; conditions: 51b cells, FIG. 6A
# Experimental: as §1, §2, §3, §4
# Co26-CC cells [3] = experiment: Hepatic metastasis assay (intrasplenic injection of Co26-CC cells); assay type: in vivo, BALB/c mice; conditions: Co26-CC cells preincubated with 10 μg/ml HC0303 for 30 min before intrasplenic injection; day 14; vs untreated cells; FIG. 9; P<0.01
# Experimental: Hepatic metastases were produced by the intrasplenic injection into anesthetized male BALB/c mice (6- to 8-weeks old) of 1.5×10^5 viable Co26-CC cells suspended in 0.1 ml Hanks' balanced salt solution. Some cells were incubated with 10 μg/ml compound HC0303 for 30 min prior to their inoculation. Mice were killed by cervical dislocation on the 14th day after the injection of cancer cells. An integrated image analysis system (Olympus Microimage 4.0 capture kit) connected to an Olympus BX51TF microscope was used to quantify the number of foci and their average diameters in serially-cut and hematoxylin/eosin stained hepatic tissue sections.
# Densitometric analysis of digitalized microscopic images was used to distinguish metastatic tissue from normal hepatic tissue. Previously described stereological procedures were employed (cf. Vidal-Vanaclocha et al., Cancer Research, 1994, 54(10):2667-72) and the following parameters were calculated: the liver metastasis density, which was the number of metastases per 100 mm^3 of liver (based on the mean number of foci detected in fifteen 10×10 mm^2 sections per liver) and the liver metastasis volume (mean percentage of liver volume occupied by metastases).
# In vitro effect of compound HC0303 on in vivo metastatic behavior of cancer cells was tested in Co26-CC cells. […] In addition, the percentage of liver volume occupied by metastases was assessed. […]
# Co26-CC cells [4] = experiment: Viability of Co26-CC cells after in vitro pretreatment; assay type: cell-based, murine; conditions: in vitro cancer cell pretreatment with HC0303
smiles,measurement,setting,value
"CC[C@H](C)C(OCc1ccccc1)[C@@H]1[C@H]([N+](=O)[O-])[C@H](c2ccccc2)N[C@]1(C)C(=O)NCCC(=O)O (stereo partly drawn) [HC0303, 3-[(2S,3R,4S,5S)-3-[(2S)-1-(Benzyloxy)-2-methylbutyl]-2-methyl-4-nitro-5-phenylpyrrolidine-2-carboxamido]propanoic acid]",B16M cell adhesion increase produced in response of VEGF,[1],abrogated
same,PMA-induced cancer cell adhesion to HSE cells,"[2]; 100 ng/ml PMA 30 min, then HC0303 20 μg/5×10^5 cells for 30 min, P<0.01",significantly decreased
same,adhesion to untreated HSE cells (no PMA),[2]; HC0303 20 μg/5×10^5 cells for 30 min,did not affect
same,liver metastasis density (number of foci/100 mm^3),Co26-CC cells [3],almost abrogated
same,liver metastasis volume (percentage of liver volume occupied by metastases),Co26-CC cells [3],almost abrogated
same,Cell viability of Co26-CC cells,Co26-CC cells [4],without Affecting Cell Viability
same,melting point,,104 to 105 °C
